Drawing on patent publication US20260077051A1, “COMPOUNDS FOR THE DEGRADATION OF EGFR KINASE” (BeOne Medicines I GmbH, priority 2023, published 2026), this text covers DC50 and Dmax for 10 molecules.

Experiment [1] concerns the target T1, EGFR-L858R/C797S (H1975-clone #8 cells) (Homo sapiens, UniProt P00533, C797S/L858R).
T1 construct: expressed in transfected cells; host or cells: H1975 (lentiviral transduction, endogenous EGFR knocked out, single clone #8)
Put plainly: EGFR degradation in H1975-clone#8 (L858R/C797S) cells (HTRF assay). The experiment is classed as cell-based. The following applies: 16 h treatment; for DC50: IC50(DC50) of EGFR degradation; for Dmax: maximum percentage of inhibition (degradation). As for the experimental part: H1975-clone #8 (L858R/C797S): EGFR-L858R/C797S were stably expressed in H1975 cell lines by lentivirus-mediated over-expression, respectively. The EGFR over-expressed cells then underwent knockout, in which the EGFR targeting sgRNA was designed to only target the endogenous EGFR copies and preserve the exogenous EGFR copies. Followed by the knockout, the edited H1975 cells were seeded in 96 well plates at the concentration of […], cultured for about 2 weeks to allow single clones formation. The formed clones were screened by DNA sequencing and whole exon sequencing analysis for the desired edition. H1975-clone #8 were finally confirmed as homozygous L858R/C797S EGFR clones.
(§1) H1975-#8 and BaF3-L858R cells are treated with compounds diluted in 0.1% DMSO cell culture medium on day 2, incubate for 16 h, 37° C., 5% CO2. the final concentration of compounds in all assay is start with 10 uM, 5-fold dilution, total 8 doses were included.
(§2) After 16 h treatment, for H1975-#8 cells, add 100 ul HTRF 1× lysis buffer to each well; for BaF3-L858R cells, add 20 μl 4× lysis buffer to each well; seal the plate and incubate 1 hour at room temperature on a plate shaker; Once the cells are lysed, 16 μL of cell lysate are transferred to a PE 384-well HTRF detection plate; 4 μL of pre-mixed HTRF antibodies are added to each well; Cover the plate with a plate sealer, spin 1000 rpm for 1 min, Incubate overnight at room temperature; Read on BMG PheraStar with HTRF protocol (337 nm-665 nm-620 nm).
(§3) The inhibition (degradation) percentage of the compound was calculated by the following equation:
(§4) High control=Cell group with added DMSO and without compound, indicating microplate readings without EGFR degradation;
(§5) Dmax is the maximum percentage of inhibition (degradation).
(§6) The IC50(DC50) value of a compound can be obtained by fitting the following equation
(§7) Wherein, X and Y are known values, and IC50, Hillslope, Top and Bottom are the parameters obtained by fitting with software. Y is the inhibition percentage (calculated from the equation), X is the concentration of the compound; IC50 is the concentration of the compound when the 50% inhibition is reached. The smaller the IC50 value is, the stronger the inhibitory ability of the compound is. Vice versa, the higher the IC50 value is, the weaker the ability the inhibitory ability of the compound is; Hillslope represents the slope of the fitted curve, generally around 1*; Bottom represents the minimum value of the curve obtained by data fitting, which is generally 0%±20%; Top represents the maximum value of the curve obtained by data fitting, which is generally 100%±20%. The experimental data were fitted by calculating and analyzing with Dotmatics data analysis software.
(In general: In TR-FRET formats the signal depends on donor and acceptor labels being close together.)

For experiment [2], the target named is T2, EGFR L858R (BaF3-L858R cells) (Homo sapiens, UniProt P00533, L858R).
T2 construct: host or cells: BaF3
Put plainly: EGFR degradation in BaF3-L858R cells (HTRF assay). The format is cell-based. Conditions: 16 h treatment; for DC50: IC50(DC50) of EGFR degradation; for Dmax: maximum percentage of inhibition (degradation). As for the experimental part:
BaF3-L858R (abbv. L858R) cell were purchased from Kangyuan Bochuang Biotechnology (Beijing) Co., Ltd.
as §1, §2, §3, §4, §5, §6, §7

T2 sequence (P00533 25-1210 L858R): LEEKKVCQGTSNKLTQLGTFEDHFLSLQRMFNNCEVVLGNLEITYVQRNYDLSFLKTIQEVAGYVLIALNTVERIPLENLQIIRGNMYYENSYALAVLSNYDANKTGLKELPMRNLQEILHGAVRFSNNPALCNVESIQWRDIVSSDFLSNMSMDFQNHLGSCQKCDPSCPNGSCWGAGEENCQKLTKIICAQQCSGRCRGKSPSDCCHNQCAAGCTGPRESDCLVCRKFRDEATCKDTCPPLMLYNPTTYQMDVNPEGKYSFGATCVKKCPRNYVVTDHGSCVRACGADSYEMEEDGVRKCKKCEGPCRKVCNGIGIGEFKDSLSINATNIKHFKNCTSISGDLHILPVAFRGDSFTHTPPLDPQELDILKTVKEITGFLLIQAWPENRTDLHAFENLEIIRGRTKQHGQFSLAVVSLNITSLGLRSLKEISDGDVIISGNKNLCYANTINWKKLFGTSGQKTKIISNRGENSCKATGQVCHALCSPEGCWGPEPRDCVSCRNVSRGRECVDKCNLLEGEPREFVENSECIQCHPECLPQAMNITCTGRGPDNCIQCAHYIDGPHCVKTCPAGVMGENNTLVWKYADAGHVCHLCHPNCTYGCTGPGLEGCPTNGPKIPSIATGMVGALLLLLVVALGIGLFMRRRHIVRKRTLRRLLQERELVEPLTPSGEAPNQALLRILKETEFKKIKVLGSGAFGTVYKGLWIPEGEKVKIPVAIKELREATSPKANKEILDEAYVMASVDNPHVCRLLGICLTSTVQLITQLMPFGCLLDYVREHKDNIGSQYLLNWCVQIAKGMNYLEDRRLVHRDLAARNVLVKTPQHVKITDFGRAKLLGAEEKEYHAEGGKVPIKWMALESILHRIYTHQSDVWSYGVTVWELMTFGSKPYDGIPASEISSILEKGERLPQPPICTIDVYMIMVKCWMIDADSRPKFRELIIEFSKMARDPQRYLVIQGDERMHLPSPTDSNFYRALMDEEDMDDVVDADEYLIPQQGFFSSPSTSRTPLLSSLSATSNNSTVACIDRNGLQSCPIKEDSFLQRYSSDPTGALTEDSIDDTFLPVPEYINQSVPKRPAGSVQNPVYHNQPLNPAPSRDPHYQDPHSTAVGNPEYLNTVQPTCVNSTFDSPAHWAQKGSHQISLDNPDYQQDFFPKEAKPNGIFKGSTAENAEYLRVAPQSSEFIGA
T1 sequence (P00533 25-1210 C797S/L858R): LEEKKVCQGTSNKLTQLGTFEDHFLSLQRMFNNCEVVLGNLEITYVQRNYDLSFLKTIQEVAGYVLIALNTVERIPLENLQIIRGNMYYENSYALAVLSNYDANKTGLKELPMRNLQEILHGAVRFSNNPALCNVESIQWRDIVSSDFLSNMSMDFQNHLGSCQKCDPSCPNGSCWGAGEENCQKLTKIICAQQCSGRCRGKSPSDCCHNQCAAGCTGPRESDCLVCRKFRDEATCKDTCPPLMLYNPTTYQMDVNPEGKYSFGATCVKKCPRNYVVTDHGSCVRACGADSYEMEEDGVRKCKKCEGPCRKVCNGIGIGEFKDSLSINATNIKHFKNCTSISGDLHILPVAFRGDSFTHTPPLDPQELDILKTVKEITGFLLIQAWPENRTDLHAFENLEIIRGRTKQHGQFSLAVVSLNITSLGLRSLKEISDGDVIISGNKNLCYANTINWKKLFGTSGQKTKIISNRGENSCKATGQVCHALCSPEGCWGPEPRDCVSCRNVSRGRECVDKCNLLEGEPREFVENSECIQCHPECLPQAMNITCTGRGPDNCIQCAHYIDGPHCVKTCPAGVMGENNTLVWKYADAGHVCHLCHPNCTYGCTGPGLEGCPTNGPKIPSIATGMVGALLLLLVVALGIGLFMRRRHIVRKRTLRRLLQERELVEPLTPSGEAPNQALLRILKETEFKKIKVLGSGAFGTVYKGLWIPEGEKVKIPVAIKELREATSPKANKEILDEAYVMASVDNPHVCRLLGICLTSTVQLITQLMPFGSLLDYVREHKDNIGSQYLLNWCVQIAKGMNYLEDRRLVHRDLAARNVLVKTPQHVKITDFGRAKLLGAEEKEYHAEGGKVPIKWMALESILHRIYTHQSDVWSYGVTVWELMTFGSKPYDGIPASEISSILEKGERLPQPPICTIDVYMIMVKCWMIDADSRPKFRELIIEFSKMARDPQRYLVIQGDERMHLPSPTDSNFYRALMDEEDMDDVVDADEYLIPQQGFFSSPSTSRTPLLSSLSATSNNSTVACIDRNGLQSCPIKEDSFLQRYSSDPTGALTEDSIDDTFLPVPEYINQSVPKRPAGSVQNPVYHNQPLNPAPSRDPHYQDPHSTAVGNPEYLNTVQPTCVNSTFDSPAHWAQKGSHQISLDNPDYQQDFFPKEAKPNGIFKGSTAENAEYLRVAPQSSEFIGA

`Cc1cc2cc(n1)-c1cnn(C)c1OCC[C@]1(C)C[C@H]1CN1/C(=N/C2=O)Nc2ccc(N3CCN(C4CCN(c5cc(F)c(C6CCC(=O)NC6=O)nc5C)CC4)CC3)cc21` (stereo partly shown) [Example 54, 3-(3-fluoro-6-methyl-5-(4-(4-((7^1R,7^2S,E)-1^1,2^6,7^2-trimethyl-3-oxo-5^2,5^3-dihydro-1^1H,5^1H-10-oxa-4-aza-5 (2,1)-benzo[d]imidazola-2 (2,4)-pyridina-1 (4,5)-pyrazola-7 (1,2)-cyclopropanacyclodecaphane-5^6-yl)piperazin-1-yl)piperidin-1-yl)pyridin-2-yl)piperidine-2,6-dione]: in experiment [1], the DC50 (usually the midpoint of the concentration-degradation curve) came to 2.11 nM and the Dmax (usually the largest share of the target that was removed) was determined as 77.7%. In experiment [2], the DC50 is 3.35 nM and the Dmax was 91.9%.
The like results for `Cc1cc2cc(n1)-c1cnn(C)c1OCC[C@H]1C[C@@H]1CN1/C(=N/C2=O)Nc2ccc(N3CCN(C4CCN(c5ccc(C6CCC(=O)NC6=O)nc5C)CC4)C[C@@H]3C)cc21` (stereo partly drawn) [Example 3, 3-(5-(4-((S)-4-((7^1S,7^2R,E)-1^1,2^6-dimethyl-3-oxo-5^2,5^3-dihydro-1^1H,5^1H-10-oxa-4-aza-5 (2,1)-benzo[d]imidazola-2 (2,4)-pyridina-1 (4,5)-pyrazola-7 (1,2)-cyclopropanacyclodecaphane-5-yl)-3-methylpiperazin-1-yl)piperidin-1-yl)-6-methylpyridin-2-yl)piperidine-2,6-dione] were, in that order, 3.1 nM, 65.2%, 11.6 nM and 85.5%.
In experiment [1], `Cc1cc2cc(n1)-c1cnn(C)c1OCC[C@H]1C[C@@H]1CN1/C(=N/C2=O)Nc2ccc(N3CCN(C4CCN(c5cc(F)c(C6CCC(=O)NC6=O)nc5C)CC4)CC3)cc21` (stereo partly shown) [Example 16, 3-(5-(4-(4-((7^1S,7^2R,E)-1^1,2^6-dimethyl-3-oxo-5^2,5^3-dihydro-1^1H,5^1H-10-oxa-4-aza-5 (2,1)-benzo[d]imidazola-2 (2,4)-pyridina-1 (4,5)-pyrazola-7 (1,2)-cyclopropanacyclodecaphane-5^6-yl)piperazin-1-yl)piperidin-1-yl)-3-fluoro-6-methylpyridin-2-yl)piperidine-2,6-dione] gave a half-maximal degradation concentration (DC50) of 7.82 nM and a Dmax of 73.3%. In experiment [2], the DC50 worked out at 18 nM and the Dmax is 76.4%.
The like results for `COC[C@@H]1CN(c2ccc3c(c2)N2C[C@@H]4C[C@@]4(C)CCOc4c(cnn4C)-c4cc(cc(C)n4)C(=O)/N=C/2N3)CCN1C1CCN(c2cc(F)c([C@H]3CCC(=O)NC3=O)c(F)c2)CC1` [Example 26, (R)-3-(2,6-difluoro-4-(4-((S)-2-(methoxymethyl)-4-((7^1R,7^2S,E)-1^1,2^6,7^2-trimethyl-3-oxo-5^2,5^3-dihydro-1^1H,5^1H-10-oxa-4-aza-5 (2,1)-benzo[d]imidazola-2 (2,4)-pyridina-1 (4,5)-pyrazola-7 (1,2)-cyclopropanacyclodecaphane-5^6-yl)piperazin-1-yl)piperidin-1-yl)phenyl)piperidine-2,6-dione] were, in that order, 3.41 nM, 58.9%, 4.02 nM and 85.7%.
The matching figures for `Cc1cc2cc(n1)-c1cnn(C)c1OCC[C@]1(C)C[C@H]1CN1/C(=N/C2=O)Nc2ccc(N3CCC(C(=O)N4CCC(Oc5cc(F)c([C@H]6CCC(=O)NC6=O)c(F)c5)CC4)CC3)cc21` [Example 29, (R)-3-(2,6-difluoro-4-((1-(1-((7^1R,7^2S,E)-1^1,2^6,7^2-trimethyl-3-oxo-5^2,5^3-dihydro-1^1H,5^1H-10-oxa-4-aza-5 (2,1)-benzo[d]imidazola-2 (2,4)-pyridina-1 (4,5)-pyrazola-7 (1,2)-cyclopropanacyclodecaphane-5^6-yl)piperidine-4-carbonyl)piperidin-4-yl)oxy)phenyl)piperidine-2,6-dione]: 0.986 nM, 49.2%, 3.9 nM and 67.8%.
The like results for `Cc1cc2cc(n1)-c1cnn(C)c1OCC[C@H]1C[C@@H]1CN1/C(=N/C2=O)Nc2ccc(N3CCN(C4CCN(c5cccc6c5C(C)(C)C(=O)N6C5CCC(=O)NC5=O)CC4)CC3)cc21` (stereo partly shown) [Example 18, 3-(4-(4-(4-((7^1S,7^2R,E)-1^1,2^6-dimethyl-3-oxo-5^2,5^3-dihydro-1^1H,5^1H-10-oxa-4-aza-5 (2,1)-benzo[d]imidazola-2 (2,4)-pyridina-1 (4,5)-pyrazola-7 (1,2)-cyclopropanacyclodecaphane-5^6-yl)piperazin-1-yl)piperidin-1-yl)-3,3-dimethyl-2-oxoindolin-1-yl)piperidine-2,6-dione] were, in that order, 5.12 nM, 66.3%, 6.69 nM and 84.6%.
In experiment [1], `Cc1cc2cc(n1)-c1cnn(C)c1OCC[C@H]1C[C@@H]1CN1/C(=N/C2=O)Nc2ccc(N3CCN(CCc4cc(F)c([C@H]5CCC(=O)NC5=O)c(F)c4)C(C4CCOC4)C3)cc21` (stereo partly drawn) [Example 35, (3R)-3-(4-(2-(4-((7^1S,7^2R,E)-1^1,2^6-dimethyl-3-oxo-5^2,5^3-dihydro-1^1H,5^1H-10-oxa-4-aza-5 (2,1)-benzo[d]imidazola-2 (2,4)-pyridina-1 (4,5)-pyrazola-7 (1,2)-cyclopropanacyclodecaphane-5^6-yl)-2-(tetrahydrofuran-3-yl)piperazin-1-yl)ethyl)-2,6-difluorophenyl)piperidine-2,6-dione] yielded a DC50 of 8.44 nM and a Dmax of 41.4%. In experiment [2], the DC50 came out at 22 nM and the Dmax was found to be 59%.
The like results for `Cc1cc2cc(n1)-c1cnn(C)c1OCC[C@H]1C[C@@H]1CN1/C(=N/C2=O)Nc2ccc(N3CC4CCC3CN4C3CN(C4CCN(c5c(C)cc(C6CCC(=O)NC6=O)nc5C)CC4)C3)cc21` (stereo partly shown) [Example 28, 3-(5-(4-(3-(5-((7^1S,7^2R,E)-1^1,2^6-dimethyl-3-oxo-5^2,5^3-dihydro-1^1H,5^1H-10-oxa-4-aza-5 (2,1)-benzo[d]imidazola-2 (2,4)-pyridina-1 (4,5)-pyrazola-7 (1,2)-cyclopropanacyclodecaphane-5^6-yl)-2,5-diazabicyclo[2.2.2]octan-2-yl)azetidin-1-yl)piperidin-1-yl)-4,6-dimethylpyridin-2-yl)piperidine-2,6-dione] were, in that order, 2.71 nM, 49%, 6.31 nM and 78.2%.
The matching figures for `Cc1cc2cc(n1)-c1cnn(C)c1OCC[C@H]1C[C@@H]1CN1/C(=N/C2=O)Nc2ccc(N3CCN([C@@H]4CCN(c5c(C)cc(C6CCC(=O)NC6=O)nc5C)C[C@@H]4F)CC3)cc21` (stereo partly drawn) [Example 33, 3-(5-((3S,4R)-4-(4-((7^1S,7^2R,E)-1^1,2^6-dimethyl-3-oxo-5^2,5^3-dihydro-1^1H,5^1H-10-oxa-4-aza-5 (2,1)-benzo[d]imidazola-2 (2,4)-pyridina-1 (4,5)-pyrazola-7 (1,2)-cyclopropanacyclodecaphane-5^6-yl)piperazin-1-yl)-3-fluoropiperidin-1-yl)-4,6-dimethylpyridin-2-yl)piperidine-2,6-dione]: 4.74 nM, 44.3%, 8.38 nM and 89.1%.
The matching figures for `Cc1cc2cc(n1)-c1cnn(C)c1OCC[C@H]1C[C@@H]1CN1/C(=N/C2=O)Nc2ccc(N3CCN([C@@H]4CCN(c5cc(F)c(C6CCC(=O)NC6=O)nc5C)C[C@@H]4F)CC3)cc21` (stereo partly drawn) [Example 34, 3-(5-((3S,4R)-4-(4-((7^1S,7^2R,E)-1^1,2^6-dimethyl-3-oxo-5^2,5^3-dihydro-1^1H,5^1H-10-oxa-4-aza-5 (2,1)-benzo[d]imidazola-2 (2,4)-pyridina-1 (4,5)-pyrazola-7 (1,2)-cyclopropanacyclodecaphane-5^6-yl)piperazin-1-yl)-3-fluoropiperidin-1-yl)-3-fluoro-6-methylpyridin-2-yl)piperidine-2,6-dione]: 11.9 nM, 57%, 7.47 nM and 83.8%.
